Experimental data from patent publication US20110200554A1, “THERAPEUTIC AGENT FOR HEPATITIS C” (priority 2008, published 2011).
pIC50: −log10 of the molar value.

Tests used:
[1] = test system: genome-length HCV RNA replication in OR6 cells; assay: Genome-length HCV replication assay in OR6 cells (Renilla luciferase reporter); type: cell-based, Hepatitis C virus (HCV); conditions: luciferase activity
Text: Briefly, the cells described in Patent Literature 1 used for the screening were as follows: That is, the cells were those obtained by introducing, into Oc cells (FERM P-20517) originated from a human hepatocarcinoma cell line HuH-7, a plasmid containing full length of HCV genome, luciferase gene as a reporter gene and neomycin-resistant gene (neomycin phosphotransferase gene) as a selection marker gene. More specifically, the cells (OR6 cells) were the Oc cells (FERM P-20517) originated from a human hepatocarcinoma cell line HuH-7, into which a plasmid having an RNA containing, from the 5′-end, internal ribosome entry site (IRES) sequence of HCV, luciferase gene, neomycin phosphotransferase gene, IRES sequence originated from encephalomyocarditis virus (EMCV), HCV open reading frame sequence and HCV 3′ untranslated sequence. After culturing the OR6 cells in a culture medium containing a test compound whose anti-viral activity against HCV (that is, therapeutic effect against hepatitis C) is to be examined, the luciferase activity of the cells is measured. […] Therefore, the lower the luciferase activity measured, the higher the anti-HCV activity. In Patent Literature 1, it was experimentally confirmed that correlation between the luciferase activity measured and the amount of HCV RNA is very high, so that it has been confirmed that this system has a high reliability. […]

HCV RNA (virus level) = assay: Clinical test in patients with intractable hepatitis C, serum HCV RNA by real-time PCR (TaqMan); type: in vivo, human; conditions: oral 1500 mg/day for 4 weeks
Procedure: Serum HCV RNA level (log IU/ml) was measured every week from before the administration to the end of the therapy by the real-time detection PCR method using TaqMan (trade name) probe.

OR6 cells = assay: Cell viability, viable cell count after trypan blue staining; type: cell-based, human; conditions: 72 h, HU at each concentration up to 100 μmol/L
Procedure: In order to examine the cytotoxic effects of HU on OR6 cells, the cells were seeded onto dishes of diameter 95 mm at a density of 400,000 cells per dish, and cultured for 72 hours after adding HU to a concentration of 0, 50, 100, and 150 μmol/L, respectively. The number of viable cells was then counted by a hematocytometer after staining with trypan blue dye.

[2] = test system: Renilla luciferase driven by EMCV IRES in OR6c cells; assay: Control transfection: EMCV IRES-driven Renilla luciferase plasmid pEMCV-RL in cured OR6c cells; type: cell-based, human; conditions: cured OR6c cells transfected with pEMCV-RL, HU added 24 h after transfection, 72 h culture
Procedure: In accordance with Patent Literature 1, a plasmid encoding Renilla luciferase driven by the internal ribosome entry site (IRES) of encephalomyocarditis virus (EMCV) was transfected into OR6c cells which were OR6 cells cured by IFN, with FuGENE6 reagent (produced by Roche Diagnostics), and 24 hours after transfection, the cells were treated with various concentrations of HU and cultured for 72 hours.

[3] = serum HCV RNA (log IU/ml), 12 patients

interferon α
50% inhibition concentration ([1]; 72 h treatment): 1.2 IU/mL

hydroxyurea [HU]
patients with decrease in the virus level (HCV RNA) (HCV RNA (virus level); 9 out of 12 patients, intractable hepatitis C, serogroup 1, high virus level): 75% | decrease in the virus level, average (HCV RNA (virus level); [3]): 0.22 Log | decrease in the virus level, maximum (HCV RNA (virus level); [3]): 0.37 Log | number of viable cells compared to untreated cells (OR6 cells): no significant difference | inhibition of Renilla fluorescence (control plasmid) [2]: did not inhibit | pIC50 ([1]; 72-h treatment, HU up to 150 μmol/L, read-out: 50% replication inhibition concentration): 4.22
